Source: patent US10575537B2, “Saury Maillard peptide and its preparation method and application” (South China University of Technology, priority 2015, dated 2020)
Marks after values point to notes of the source that are not given here.

Tests used:
[1] = system: rats with hyperuricemia induced by oteracil potassium; assay: serum uric acid content in rats with hyperuricemia induced by oteracil potassium; type: in vivo, rat
Source text: (§1) As the index in the following examples, the experimental method of therapeutic effects of the peptide samples on the oteracil potassium-induced hyperuricemia in rats was as follow:
(§2) Animals: 140 SPF grade SD male rats, weight 200±20 g, purchased from Laboratory Animal Center of Guangzhou University of Chinese Medicine.
(§3) Animal grouping and modeling: Taking a total of 140 healthy male SD rats, and randomly dividing them into a normal control group (20 rats) and a model group (120 rats); the model group rats were gavage with oteracil potassium (daily dose: 2 g/kg) for 7 days, then the rat were anesthetized via intraperitoneally injecting 3% pentobarbital sodium (30 mg/kg) after the last administration, their blood was taken from conjunctival (0.5 ml), then centrifuging at 4° C. and 3000 r/min for 15 min, and taking the upper serum to determine the uric acid content, and the rats in the normal control group were treated with a constant volume of solvent by intragastric administration. The rats with the uric acid content above 110 μmol/L were identified to be successful in modeling.
The rats successful in modeling, according to the uric acid content, was randomly dividing into a model control group (constant volume solvent), a tested peptide sample group (200 mg/kg) and an allopurinol group (50 mg/kg) at 14 rats per group, and the rats were gavage with oteracil potassium (daily dose: 2 g/kg) at a dose of 10 ml/kg, with the model rats treated with a constant volume of distilled water. Administering 3% pentobarbital sodium (30 mg/kg) for 50 min at the end of administering the above-mentioned peptide samples for 10 days and 20 days, drawing the conjunctival blood (0.5 ml), and determining the serum uric acid content; after the 30th day of treatment with anti-gout peptides, drawing the celiac artery blood 5 ml after anesthesia with 3% pentobarbital sodium, and determining the content of serum creatinine and urea nitrogen in addition to determining the serum uric acid content.
Determination of serum uric acid: using the tungstic acid method and strictly following the determination method from the kit instructions.
Statistical treatment: all data is presented as “mean±standard deviation”, t test was performed to determine the significant difference between samples at the 95% confidence interval using SPSS 19.0 software.

[2] = system: serum adenosine deaminase (ADA); assay: serum ADA activity in rats with hyperuricemia induced by oteracil potassium; type: in vivo, rat; settings: 30 days, peptide samples 200 mg/kg, allopurinol 50 mg/kg
Source text: as §1, §2
as §3, with “modeling. […]” for “modeling.”

[3] = biological target: T1, serum xanthine oxidase (XOD) (Rattus norvegicus, UniProt P22985); assay: serum XOD activity in rats with hyperuricemia induced by oteracil potassium; type: in vivo; settings: 30 days, peptide samples 200 mg/kg, allopurinol 50 mg/kg
T1 construct: Taking 100 μl of serum for determination of XOD; from tissue; host or cells: serum of SD male rats
Source text: as §1, §2
as §3, with “modeling. […]” for “modeling.”

[4] = system: rats with hyperuricemia induced by oteracil potassium; assay: serum creatinine and urea nitrogen content in rats with hyperuricemia induced by oteracil potassium; type: in vivo, rat; settings: 30 days, peptide samples 200 mg/kg, allopurinol 50 mg/kg
Source text: as §1, §2
as §3, with “modeling. […]” for “modeling.”

T1 sequence (P22985 whole entry): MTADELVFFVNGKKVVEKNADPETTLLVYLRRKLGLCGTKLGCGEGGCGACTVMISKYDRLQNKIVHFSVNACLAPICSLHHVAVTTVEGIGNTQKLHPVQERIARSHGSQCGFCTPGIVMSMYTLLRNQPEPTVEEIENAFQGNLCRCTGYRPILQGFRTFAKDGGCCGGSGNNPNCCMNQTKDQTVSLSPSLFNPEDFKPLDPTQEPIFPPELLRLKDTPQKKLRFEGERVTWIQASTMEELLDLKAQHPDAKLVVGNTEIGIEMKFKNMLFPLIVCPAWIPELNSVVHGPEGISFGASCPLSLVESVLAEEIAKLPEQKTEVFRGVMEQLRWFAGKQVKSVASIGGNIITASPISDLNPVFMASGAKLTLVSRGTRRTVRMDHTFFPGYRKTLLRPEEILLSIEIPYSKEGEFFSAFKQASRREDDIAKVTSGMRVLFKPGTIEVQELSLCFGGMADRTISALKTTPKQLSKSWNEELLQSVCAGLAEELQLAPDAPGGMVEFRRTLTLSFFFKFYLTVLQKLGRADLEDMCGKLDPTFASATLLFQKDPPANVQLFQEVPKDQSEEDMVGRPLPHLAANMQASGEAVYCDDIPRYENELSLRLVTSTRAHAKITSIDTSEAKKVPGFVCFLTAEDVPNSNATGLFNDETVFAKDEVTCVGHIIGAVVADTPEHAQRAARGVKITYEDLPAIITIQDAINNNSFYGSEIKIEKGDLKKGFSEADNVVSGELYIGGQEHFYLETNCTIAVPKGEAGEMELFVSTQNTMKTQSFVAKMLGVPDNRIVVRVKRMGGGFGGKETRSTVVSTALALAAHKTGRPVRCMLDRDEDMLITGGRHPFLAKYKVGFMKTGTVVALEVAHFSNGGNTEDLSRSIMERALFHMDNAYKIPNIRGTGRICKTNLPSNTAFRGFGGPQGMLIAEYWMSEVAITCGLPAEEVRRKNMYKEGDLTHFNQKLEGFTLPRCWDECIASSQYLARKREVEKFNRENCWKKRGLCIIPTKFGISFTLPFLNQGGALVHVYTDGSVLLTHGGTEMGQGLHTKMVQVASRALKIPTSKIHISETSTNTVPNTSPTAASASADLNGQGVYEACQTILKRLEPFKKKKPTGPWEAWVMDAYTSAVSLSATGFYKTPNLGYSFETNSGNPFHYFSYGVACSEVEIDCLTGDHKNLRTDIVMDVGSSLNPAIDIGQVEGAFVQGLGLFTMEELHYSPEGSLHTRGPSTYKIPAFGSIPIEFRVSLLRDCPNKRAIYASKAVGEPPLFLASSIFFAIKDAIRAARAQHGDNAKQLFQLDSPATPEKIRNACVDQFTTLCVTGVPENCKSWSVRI

Oc1ncnc2[nH]ncc12 [Allopurinol]
effect on serum uric acid content, in words ([1]; hyperuricemia model rats, compared with model group): significantly decreased (p<0.01) | Uric acid value, before administration ([1]; serum, SD male rats after modeling with oteracil potassium 2 g/kg daily, baseline before administration): 230.4 ± 19.1 µmol/L | Uric acid value, treatment for 10 days ([1]; serum, gavage, peptide samples 200 mg/kg, allopurinol 50 mg/kg, 10 days): 89.5 ± 22.4^b μmol/L | Uric acid value, treatment for 20 days ([1]; serum, gavage, peptide samples 200 mg/kg, allopurinol 50 mg/kg, 20 days): 94.5 ± 13.9^b μmol/L | Uric acid value, treatment for 30 days ([1]; serum, gavage, peptide samples 200 mg/kg, allopurinol 50 mg/kg, 30 days): 92.8 ± 20.9^b μmol/L | ADA [2]: 12.28 ± 7.88^b U/ml | XOD [3]: 8.61 ± 2.46^b U/L | Creatinine [4]: 41.8 ± 13.2^b μmol/L
